Results published in patent US20250302816A1, “DISRUPTION OF EPITHELIAL BARRIERS FOR MOLECULAR DELIVERY ENHANCEMENT OR EXTRACTION OF EXTRACELLULAR FLUIDS” (The University of Nottingham, priority 2022, published 2025).

Experiments:
[1] = tested on: Calu-3; assay: Further in vitro Transwell studies: enhancing translocation of 4 kDa FITC-dextran; assay type: cell-based, human
Description: Exemplary molecules (a)-(1) investigated in coarse dose-response by FD4 delivery in Transwell culture (Calu-3). Each molecule was screened at 5 nM, 1 μM, 200 μM levels.
Each compound was screened at 200 μM level.
Each molecule was screened at 5 nM, 1 μM, 200 μM levels.

[2] = tested on: human primary lung epithelium; assay: Human primary lung epithelium, air-liquid interface culture: TEER, FD4 and mAb delivery; assay type: cell-based
[3] = tested on: MMP; assay: Fluorogenic MMP activity assay; assay type: cell-based, human; details: assay carried out in the same manner on further agents
Description: FIG. 5: High-throughput MMP assay (MMP Activity Assay Kit (Fluorometric-Red), Abcam #ab112147) showing the normalised accumulation slope of FRET-based signal (Ex540: Em590 nm) read at 5 minute intervals for one hour in adherent Calu-3 cells cultured in glass-bottomed 96-well plates using a SpectraMax i3x/Biomek FXPP high-throughput platform. Each experiment was conducted in triplicate (error bars). Signal accumulation over time in each well was linearly fitted and the gradient of each fit was scaled against the gradient of the relevant positive control wells, to which active MMP was added directly (mixed isoforms, […]), to obtain the normalised accumulation slope.
To investigate the involvement of MMP in the disruption of tight junctions observed in the presence of 200 μM 3OC12-HSL and C7 PQS, a fluorogenic MMP activity assay was performed, using the Amplite™ Universal Fluorimetric MMP Activity Assay Kit. This kit is designed to check the general activity of a MMP enzyme.
Following treatment with 3OC12-HSL and C7 PQS respectively, the conditioned media were collected every hour from apical chamber and MMP activity was determined by using Amplite™ Universal Fluorimetric MMP Activity Assay Kit Green Fluorescence according to the manufacturer's instructions.
A fluorogenic MMP activity assay was carried out in the same manner on further agents.

In the case of `CCCCCCCCCc1[nH]c2ccccc2c(=O)c1O` [C9 PQS], the “Effective in enhancing translocation” value [1] is reported as “Yes”.
With `CCCCCCCCCCCc1[nH]c2ccccc2c(=O)c1O` [C11 PQS] the “Effective in enhancing translocation” value [1] was “Yes”.
In the case of `CCCCCNC(=O)c1[nH]c2ccccc2c(=O)c1O` [PQS-C5-Amide], the “Effective in enhancing translocation” value [1] is reported as “No”.
In the case of `Cc1[nH]c2ccccc2c(=O)c1O` [C1 PQS (Me PQS)], the “Effective in enhancing translocation” value [1] is reported as “Yes”.
For `CCCCCCCc1cc(O)c2ccccc2[n+]1[O-]` [C7 HNQ N-oxide], the “Effective in enhancing translocation” value [1] was “Yes”.
In the case of `CCCCCC/C=C\CCCC(=O)N[C@H]1CCOC1=O` [5-cis-C12 HSL], the “Effective in enhancing translocation” value [1] is reported as “No”.
`CCCCCCCc1[nH]c2cc(F)ccc2c(=O)c1O` [7F-C7 PQS] was tested, and the “TEER (electrical resistance) upon agent exposure” value [2] was “temporarily reduced” and the “mAb (Mepolizumab) delivery upon agent exposure” value [2] was “increased”.
In the case of `CCCCCCCCCC(=O)CC(=O)Nc1nccs1` [OdDAT], the “TEER (electrical resistance) upon agent exposure” value [2] is reported as “temporarily reduced” and the “mAb (Mepolizumab) delivery upon agent exposure” value [2] is reported as “increased”.
In the case of `CCCCCCC/C=C\C(=O)O` [Cis-2-decenoic acid, cis-2-decenoic acid], the “Effective in enhancing translocation” value [1] is reported as “Yes”.
With `CCCCCCCCCC1=Nc2ccccc2C(=O)C1` [HNQ] the “Effective in enhancing translocation” value [1] was “Yes”.
In the case of `CCCCCCCc1cc(O)c2ccccc2n1` [HHQ], the “Effective in enhancing translocation” value [1] is reported as “Yes”.
For `CCCCCCCCCc1[nH]c2ccccc2c(=O)c1CN(C)C` [3-C1NMe2 C9 PQS], the “Effective in enhancing translocation” value [1] was “No”.
In the case of `CCCCCC/C=C/Cc1[nH]c2ccccc2c(=O)c1C` [3-Me C9: 2. Quinolone], the “Effective in enhancing translocation” value [1] is reported as “No”.
With `CCCC(=O)NC1CCOC1=O` (stereo not shown) [C4 HSL (BHL), N-butyl-homoserine-lactone] the “MMP activation (further MMP screening)” value [3] was “cause MMP activation”.
In the case of `CC(C)CCCCCCc1[nH]c2ccccc2c(=O)c1O` [7Me-C8-PQS], the “Effective in enhancing translocation” value [1] is reported as “Yes”.
In the case of `CCCCCCCCCCCc1cc(=O)c2ccccc2[nH]1` [UHQ], the “Effective in enhancing translocation” value [1] is reported as “Yes”.
With `CCCCC(=O)CC(=O)NC1CCOC1=O` (stereo not shown) [OC7-HSL] the “Effective in enhancing translocation” value [1] was “Yes”.
